How the values were obtained:
[1] = (§1) The drug is tested on Z-024 corresponding to pig gut metagenome with ENA study accession number: PRJEB37062 and ENA sample accession number: ERS12561823 for biotransformation under anaerobic condition. The drug concentrations were measured over 9 timepoints collected between 0 and 24 hours of incubation by liquid-chromatography-coupled mass spectrometry (LC–MS); settings: 2 µM
[2] = as §1, with “Z-017” for “Z-024”, “mouse” for “pig”, “ERS12561816” for “ERS12561823”; settings: 2 µM
[3] = as §1, with “Z-014” for “Z-024”, “rat” for “pig”, “ERS12561814” for “ERS12561823”; settings: 2 µM
[4] = as §1, with “Z-011” for “Z-024”, “mouse” for “pig”, “ERS12561811” for “ERS12561823”; settings: 2 µM
[5] = as §1, with “Z-007” for “Z-024”, “rat” for “pig”, “ERS12561807” for “ERS12561823”; settings: 2 µM
[6] = as §1, with “Z-002” for “Z-024”, “rabbit” for “pig”, “ERS12561802” for “ERS12561823”; settings: 2 µM
[7] = as §1, with “Z-001” for “Z-024”, “mouse” for “pig”, “ERS12561801” for “ERS12561823”; settings: 2 µM
[8] = as §1, with “WLS-220” for “Z-024”, “human” for “pig”, “ERS12561769” for “ERS12561823”; settings: 2 µM
[9] = as §1, with “WLS-073” for “Z-024”, “human” for “pig”, “ERS12561749” for “ERS12561823”; settings: 2 µM
[10] = as §1, with “WLS-052” for “Z-024”, “human” for “pig”, “ERS12561747” for “ERS12561823”; settings: 2 µM
[11] = as §1, with “WLS-027” for “Z-024”, “human” for “pig”, “ERS12561744” for “ERS12561823”; settings: 2 µM
[12] = as §1, with “WLS-007” for “Z-024”, “human” for “pig”, “ERS12561742” for “ERS12561823”; settings: 2 µM
[13] = as §1, with “WLS-006” for “Z-024”, “human” for “pig”, “ERS12561741” for “ERS12561823”; settings: 2 µM
[14] = human gut metagenome, 24 h, 2 µM
[15] = human gut metagenome, 24 h, 2 µM; remark: listed apart in the source
[16] = human gut metagenome, 24 h, 2 µM; remark: listed apart in the source
[17] = human gut metagenome, 24 h, 2 µM; remark: listed apart in the source
[18] = human gut metagenome, 24 h, 2 µM; remark: listed apart in the source
[19] = human gut metagenome, 24 h, 2 µM; remark: listed apart in the source
[20] = human gut metagenome, 24 h, 2 µM; remark: listed apart in the source
Further: call rule not given here.

Structure (SMILES)	Bacterial Biotransformation [1]	Bacterial Biotransformation [2]	Bacterial Biotransformation [3]	Bacterial Biotransformation [4]	Bacterial Biotransformation [5]	Bacterial Biotransformation [6]	Bacterial Biotransformation [7]	Bacterial Biotransformation [8]	Bacterial Biotransformation [9]	Bacterial Biotransformation [10]	Bacterial Biotransformation [11]	Bacterial Biotransformation [12]	Bacterial Biotransformation [13]	Bacterial Biotransformation [14]	Bacterial Biotransformation [15]	Bacterial Biotransformation [16]	Bacterial Biotransformation [17]	Bacterial Biotransformation [18]	Bacterial Biotransformation [19]	Bacterial Biotransformation [20]
COC(=O)C(c1ccccc1)C1CCCCN1 (stereo not given) [METHYLPHENIDATE]	Compound metabolized	Compound NOT metabolized	Compound NOT metabolized	Compound NOT metabolized	Compound NOT metabolized	Compound metabolized	Compound metabolized	Compound metabolized	Compound NOT metabolized	Compound NOT metabolized	Compound metabolized	Compound NOT metabolized	Compound NOT metabolized	Compound NOT metabolized	Compound NOT metabolized	Compound NOT metabolized	Compound NOT metabolized	Compound NOT metabolized	Compound metabolized	Compound NOT metabolized
CN1CCN2c3ccccc3Cc3ccccc3C2C1 (stereo not given) [MIANSERIN]	Compound metabolized	Compound NOT metabolized	Compound NOT metabolized	Compound metabolized	Compound NOT metabolized	Compound metabolized	Compound NOT metabolized	Compound metabolized	Compound NOT metabolized	Compound NOT metabolized	Compound NOT metabolized	Compound NOT metabolized	Compound NOT metabolized	Compound NOT metabolized	Compound NOT metabolized	Compound NOT metabolized	Compound metabolized	Compound NOT metabolized	Compound metabolized	Compound NOT metabolized
CC#C[C@]1(O)CC[C@H]2[C@@H]3CCC4=CC(=O)CCC4=C3[C@@H](c3ccc(N(C)C)cc3)C[C@@]21C [MIFEPRISTONE]	Compound metabolized	Compound NOT metabolized	Compound NOT metabolized	Compound metabolized	Compound NOT metabolized	Compound metabolized	Compound NOT metabolized	Compound metabolized	Compound NOT metabolized	Compound metabolized	Compound metabolized	Compound metabolized	Compound metabolized	Compound NOT metabolized	Compound NOT metabolized	Compound NOT metabolized	Compound NOT metabolized	Compound metabolized	Compound metabolized	Compound NOT metabolized
CC(C)(C)NCC(O)COc1cccc2c1CC(O)C(O)C2 (stereo not given) [NADOLOL]	Compound NOT metabolized	Compound NOT metabolized	Compound NOT metabolized	Compound metabolized	Compound NOT metabolized	Compound metabolized	Compound metabolized	Compound NOT metabolized	Compound NOT metabolized	Compound NOT metabolized	Compound NOT metabolized	Compound NOT metabolized	Compound NOT metabolized	Compound NOT metabolized	Compound NOT metabolized	Compound NOT metabolized	Compound NOT metabolized	Compound metabolized	Compound metabolized	Compound metabolized
CC(C)[C@H]1CC[C@H](C(=O)N[C@H](Cc2ccccc2)C(=O)O)CC1 [NATEGLINIDE]	Compound metabolized	Compound NOT metabolized	Compound NOT metabolized	Compound metabolized	Compound NOT metabolized	Compound metabolized	Compound NOT metabolized	Compound metabolized	Compound metabolized	Compound metabolized	Compound metabolized	Compound metabolized	Compound metabolized	Compound metabolized	Compound metabolized	Compound metabolized	Compound metabolized	Compound metabolized	Compound metabolized	Compound metabolized
CN(C)C(=O)Oc1cccc([N+](C)(C)C)c1.[Br-] [NEOSTIGMINE BROMIDE]	Compound NOT metabolized	Compound NOT metabolized	Compound NOT metabolized	Compound NOT metabolized	Compound NOT metabolized	Compound metabolized	Compound metabolized	Compound NOT metabolized	Compound NOT metabolized	Compound NOT metabolized	Compound NOT metabolized	Compound NOT metabolized	Compound NOT metabolized	Compound NOT metabolized	Compound NOT metabolized	Compound NOT metabolized	Compound NOT metabolized	Compound NOT metabolized	Compound NOT metabolized	Compound NOT metabolized
Cc1ccccc1C(OCCN(C)C)c1ccccc1.O=C(O)CC(O)(CC(=O)O)C(=O)O (stereo not given) [ORPHENADRINE CITRATE]	Compound metabolized	Compound NOT metabolized	Compound NOT metabolized	Compound NOT metabolized	Compound NOT metabolized	Compound metabolized	Compound metabolized	Compound NOT metabolized	Compound NOT metabolized	Compound NOT metabolized	Compound NOT metabolized	Compound metabolized	Compound metabolized	Compound NOT metabolized	Compound NOT metabolized	Compound NOT metabolized	Compound metabolized	Compound NOT metabolized	Compound metabolized	Compound NOT metabolized
CC(=O)CCCCn1c(=O)c2c(ncn2C)n(C)c1=O [PENTOXIFYLLINE]	Compound NOT metabolized	Compound NOT metabolized	Compound NOT metabolized	Compound NOT metabolized	Compound NOT metabolized	Compound NOT metabolized	Compound NOT metabolized	Compound NOT metabolized	Compound NOT metabolized	Compound NOT metabolized	Compound NOT metabolized	Compound NOT metabolized	Compound NOT metabolized	Compound NOT metabolized	Compound NOT metabolized	Compound NOT metabolized	Compound NOT metabolized	Compound NOT metabolized	Compound metabolized	Compound metabolized

Reference: ChEMBL document CHEMBL5724914, “Linking interpersonal differences in gut microbiota composition and drug biotransformation activity” (2024)
